Measurements taken from patent publication US20260042764A1, “COMPOSITIONS AND METHODS FOR INHIBITION OF KRAS” (TheRas, Inc., priority 2022, published 2026).

Experiments:
[1] = molecular target: T1, Avi-KRAS G12C (2-169) GTP/RAF1 RBD-3xFLAG (51-131) (Homo sapiens, UniProt P01116, G12C); experiment: Raf1-KRAS G12C-GTP disruption HTRF assay (Biological Example 3); assay type: binding; details: KRAS G12C, GTP-loaded
T1 construct: Avi-KRAS G12C (2-169)
Method in brief: (§1)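 HTRF PPI read-out (ex 320 nm, em 615 nm) after 1 h RT incubation with shaking; data as % activity vs DMSO (100%), IC50 from curve fit. Complex 50 nM, RBD reagent 75 nM; compound 30-0.005 μM, 3-fold.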

GP2d cells (KRAS G12D) = experiment: Cell-based pERK HTRF assay in GP2d cell (Biological Example 2); details: GP2d (KRAS G12D) cells
Method in brief: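 Phospho-ERK in lysed cells was detected by HTRF using Eu cryptate and d2 antibodies, read between 4 and 24 h at room temperature. Prior to lysis, KRAS G12D GP2d cells, seeded the day before in DMEM with 10% FBS, were exposed to compounds for 60 min. Compounds were tested as 9-point half-log curves from 1 μM or 100 nM top, with 0.25% DMSO.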

[2] = molecular target: T2, Avi-KRAS WT (2-169) GTP/RAF1 RBD-3xFLAG (51-131) (Homo sapiens, UniProt P01116); experiment: Raf1-KRAS WT-GTP disruption HTRF assay (Biological Example 3); assay type: binding; details: KRAS WT, GTP-loaded
T2 construct: Avi-KRAS WT (2-169)
T2 sequence (P01116 2-169 isoform P01116-2): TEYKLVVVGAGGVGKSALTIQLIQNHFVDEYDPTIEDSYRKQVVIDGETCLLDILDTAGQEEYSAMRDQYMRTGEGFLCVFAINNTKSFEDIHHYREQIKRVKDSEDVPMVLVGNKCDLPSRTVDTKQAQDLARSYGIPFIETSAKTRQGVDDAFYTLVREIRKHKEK
Method in brief: as §1

[3] = molecular target: T3, Avi-KRAS G12V (2-169) GTP/RAF1 RBD-3xFLAG (51-131) (Homo sapiens, UniProt P01116, G12V); experiment: Raf1-KRAS G12V-GTP disruption HTRF assay (Biological Example 3); assay type: binding; details: KRAS G12V, GTP-loaded
T3 construct: Avi-KRAS G12V (2-169)
T3 sequence (P01116 2-169 isoform P01116-2 G12V): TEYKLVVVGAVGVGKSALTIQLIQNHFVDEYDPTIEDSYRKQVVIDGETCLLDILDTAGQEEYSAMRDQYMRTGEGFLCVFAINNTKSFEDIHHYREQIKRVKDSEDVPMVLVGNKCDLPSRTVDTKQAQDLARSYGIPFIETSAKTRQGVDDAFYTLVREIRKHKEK
Method in brief: as §1

SW620 cells (KRAS G12V) = experiment: Cell-based pERK HTRF assay in SW620 cell (Biological Example 4)
Method in brief: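 In SW620 cells grown in RPMI with 10% FBS, a 4 h compound treatment (0.25% DMSO, 9-point curve from 1 μM) preceded lysis. Phospho-ERK levels were then read by time-resolved FRET at 615 nm emission.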

[4] = molecular target: T4, Avi-KRAS G12D (2-169) GTP/RAF1 RBD-3xFLAG (51-131) (Homo sapiens, UniProt P01116, G12D); experiment: Raf1-KRAS G12D-GTP disruption HTRF assay (Biological Example 3); assay type: binding; details: KRAS G12D, GTP-loaded
T4 construct: Avi-KRAS G12D (2-169)
T4 sequence (P01116 2-169 isoform P01116-2 G12D): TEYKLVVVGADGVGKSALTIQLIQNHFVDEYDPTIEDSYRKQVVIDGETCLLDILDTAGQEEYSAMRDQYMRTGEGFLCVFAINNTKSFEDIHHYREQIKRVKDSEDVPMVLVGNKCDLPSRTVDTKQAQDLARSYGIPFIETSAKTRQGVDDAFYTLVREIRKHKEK
Method in brief: as §1

[5] = Homo sapiens, SW-620, SW620 (KRAS G12V) cells

T1 sequence (P01116 2-169 isoform P01116-2 G12C): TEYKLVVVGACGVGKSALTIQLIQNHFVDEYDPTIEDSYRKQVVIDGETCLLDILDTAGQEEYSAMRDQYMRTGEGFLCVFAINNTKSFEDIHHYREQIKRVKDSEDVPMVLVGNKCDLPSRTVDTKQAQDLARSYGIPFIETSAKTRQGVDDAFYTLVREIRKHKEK

Compound	IC50 [1]	IC50 (GP2d cells (KRAS G12D); GP2d)	IC50 [2]	IC50 [3]	IC50 (SW620 cells (KRAS G12V); [5])	IC50 [4]	IC50 (GP2d cells (KRAS G12D))	IC50 (SW620 cells (KRAS G12V); SW620 (KRAS G12V) cells)
CCN(c1nc(OC[C@@]23CCCN2C[C@H](F)C3)nc2c(F)c(-c3ccc(F)c4sc(N)c(C#N)c34)c(C(F)(F)F)cc12)[C@H]1CC[C@](C)(C(=O)N(C)C)C1 (atropisomer, axis not shown) [Compound 894]	1 to 10 µM	< 0.1 µM	1 to 10 µM	1 to 10 µM	< 0.1 µM	1 to 10 µM		
CCN(c1nc(OC[C@@]23CCCN2C[C@H](F)C3)nc2c(F)c(-c3ccc(F)c4sc(N)c(C#N)c34)c(C(F)(F)F)cc12)[C@H]1C[C@@H]2CCCC(=O)N2C1 (atropisomer, axis not shown) [Compound 663]	1 to 10 µM	< 0.1 µM	1 to 10 µM	1 to 10 µM	< 0.1 µM	0.1 to 1 µM		
CCN(c1nc(OC[C@@]23CCCN2C[C@H](F)C3)nc2c(F)c(-c3ccc(F)c4sc(N)c(C#N)c34)c(C(F)(F)F)cc12)[C@H]1CCN(C(=O)OC)[C@@H]1COC (atropisomer, axis not shown) [Compound 923]	1 to 10 µM	< 0.1 µM	0.1 to 1 µM	0.1 to 1 µM	< 0.1 µM	0.1 to 1 µM		
CCN(c1nc(OC[C@@]23CCCN2C[C@H](F)C3)nc2c(F)c(-c3ccc(F)c4sc(N)c(C#N)c34)c(C(F)(F)F)cc12)[C@@H]1CCCN(C)C1=O (atropisomer, axis not shown) [Compound 968]	1 to 10 µM	< 0.1 µM	0.1 to 1 µM	1 to 10 µM	< 0.1 µM	0.1 to 1 µM		
CN(c1nc(OC[C@@]23CCCN2C[C@H](F)C3)nc2c(F)c(-c3ccc(F)c4sc(N)c(C#N)c34)c(C(F)(F)F)cc12)[C@H]1CCCc2ccncc21 (atropisomer, axis not shown) [Compound 971]	> 10 µM	< 0.1 µM	> 10 µM	> 10 µM	< 0.1 µM	> 10 µM		
CN(Cc1ccon1)c1nc(OC[C@@]23CCCN2C[C@H](F)C3)nc2c(F)c(-c3ccc(F)c4sc(N)c(C#N)c34)c(C(F)(F)F)cc12 (atropisomer, axis not shown) [Compound 856]	1 to 10 µM	< 0.1 µM	1 to 10 µM	0.1 to 1 µM	< 0.1 µM	0.1 to 1 µM		
CCN(c1nc(OC[C@@]23CCCN2C[C@H](F)C3)nc2c(F)c(-c3ccc(F)c4sc(N)c(C#N)c34)c(C(F)(F)F)cc12)[C@H]1C[C@H](C)N(C(=O)C2CC(OC)C2)C1 (stereo partly drawn) [Compound 928]	0.1 to 1 µM	< 0.1 µM	0.1 to 1 µM	0.1 to 1 µM	< 0.1 µM	0.1 to 1 µM		
CCN(c1nc(OC[C@@]23CCCN2C[C@H](F)C3)nc2c(F)c(-c3ccc(F)c4sc(N)c(C#N)c34)c(C(F)(F)F)cc12)[C@H]1CC[C@@](C)(C(=O)N(C)C)C1 (atropisomer, axis not shown) [Compound 873]	1 to 10 µM	< 0.1 µM	0.1 to 1 µM	1 to 10 µM	< 0.1 µM	1 to 10 µM		
CCN(c1nc(OC[C@@]23CCCN2C[C@H](F)C3)nc2c(F)c(-c3ccc(F)c4sc(N)c(C#N)c34)c(C(F)(F)F)cc12)[C@H]1CCN(C(=O)[C@H]2C[C@H](F)C2)C1 (atropisomer, axis not shown) [Compound 846]	0.1 to 1 µM	< 0.1 µM	0.1 to 1 µM	0.1 to 1 µM	< 0.1 µM	0.1 to 1 µM		
CO[C@H](C)C(=O)N1CC[C@H](N(c2nc(OC[C@@]34CCCN3C[C@H](F)C4)nc3c(F)c(-c4ccc(F)c5sc(N)c(C#N)c45)c(C(F)(F)F)cc23)C2CC2)C1 (atropisomer, axis not shown) [Compound 826]	1 to 10 µM	< 0.1 µM	1 to 10 µM	1 to 10 µM	< 0.1 µM	0.1 to 1 µM		
CN(c1nc(OCC23CCCN2CC(F)C3)nc2c(F)c(-c3ccc(F)c4sc(N)c(C#N)c34)c(C(F)(F)F)cc12)C1CCc2ccncc21 (stereo not drawn) [Compound 961]	> 10 µM		> 10 µM	1 to 10 µM		1 to 10 µM	< 0.1 µM	< 0.1 µM
CCN(c1nc(OC[C@@H]2C[C@@H](OC)CN2C)nc2c(F)c(-c3ccc(F)c4sc(N)c(C#N)c34)c(C(F)(F)F)cc12)[C@H]1CCN(C(=O)OC)C1 [Compound 871]	1 to 10 µM	< 0.1 µM	1 to 10 µM	1 to 10 µM	< 0.1 µM	0.1 to 1 µM		

More lines, now with the values ahead:

IC50 [1]	IC50 (GP2d cells (KRAS G12D); GP2d)	IC50 [2]	IC50 [3]	IC50 (SW620 cells (KRAS G12V); [5])	IC50 [4]	IC50 (GP2d cells (KRAS G12D))	IC50 (SW620 cells (KRAS G12V); SW620 (KRAS G12V) cells)	Compound
0.1 to 1 µM	< 0.1 µM	0.1 to 1 µM	0.1 to 1 µM	< 0.1 µM	0.1 to 1 µM			CCN(c1nc(OC[C@@]23CCCN2C[C@H](F)C3)nc2c(F)c(-c3ccc(F)c4sc(N)c(C#N)c34)c(C(F)(F)F)cc12)[C@H]1C[C@H](COC)N(C(=O)C2CC2(F)F)C1 (stereo partly drawn) [Compound 861]
0.1 to 1 µM	< 0.1 µM	0.1 to 1 µM	0.1 to 1 µM	< 0.1 µM	0.1 to 1 µM			CCN(c1nc(OC[C@@]23CCCN2C[C@H](F)C3)nc2c(F)c(-c3ccc(F)c4sc(N)c(C#N)c34)c(C(F)(F)F)cc12)[C@H]1CCN(C(=O)[C@@H]2C[C@@H]2F)[C@@H]1C (atropisomer, axis not shown) [Compound 889]
0.1 to 1 µM	< 0.1 µM	0.1 to 1 µM	0.1 to 1 µM	< 0.1 µM	0.1 to 1 µM			CCN(c1nc(OC[C@@]23CCCN2C[C@H](F)C3)nc2c(F)c(-c3ccc(F)c4sc(N)c(C#N)c34)c(C(F)(F)F)cc12)[C@H]1C[C@H](C)N(C(=O)OC2COC2)C1 (atropisomer, axis not shown) [Compound 926]
0.1 to 1 µM	< 0.1 µM	0.1 to 1 µM	0.1 to 1 µM	< 0.1 µM	0.1 to 1 µM			CCN(c1nc(OC[C@@]23CCCN2C[C@H](F)C3)nc2c(F)c(-c3ccc(F)c4sc(N)c(C#N)c34)c(C(F)(F)F)cc12)[C@@H]1CO[C@H]2OCC[C@H]21 (atropisomer, axis not shown) [Compound 966]
0.1 to 1 µM	< 0.1 µM	0.1 to 1 µM	0.1 to 1 µM	< 0.1 µM	0.1 to 1 µM			CCN(c1nc(OC[C@@]23CCCN2C[C@H](F)C3)nc2c(F)c(-c3ccc(F)c4sc(N)c(C#N)c34)c(C(F)(F)F)cc12)[C@H]1CCN(C(=O)OC2CC(OC)C2)[C@@H]1C (stereo partly drawn) [Compound 897]
≤ 0.1 µM	< 0.1 µM	≤ 0.1 µM	≤ 0.1 µM	< 0.1 µM	≤ 0.1 µM			CCN(c1nc(OC[C@@]23CCCN2C[C@H](F)C3)nc2c(F)c(-c3ccc(F)c4sc(N)c(C#N)c34)c(C(F)(F)F)cc12)[C@H]1C[C@H]2C[C@H](C)C(=O)N2C1 (atropisomer, axis not shown) [Compound 891]
0.1 to 1 µM	< 0.1 µM	0.1 to 1 µM	0.1 to 1 µM	< 0.1 µM	0.1 to 1 µM			CCN(c1nc(OC[C@@]23CCCN2C[C@H](F)C3)nc2c(F)c(-c3ccc(F)c4sc(N)c(C#N)c34)c(C(F)(F)F)cc12)[C@H]1CCCOC1 (atropisomer, axis not shown) [Compound 965]
0.1 to 1 µM	< 0.1 µM	0.1 to 1 µM	0.1 to 1 µM	< 0.1 µM	0.1 to 1 µM			CCN(c1nc(OC[C@@]23CCCN2C[C@H](F)C3)nc2c(F)c(-c3ccc(F)c4sc(N)c(C#N)c34)c(C(F)(F)F)cc12)[C@H]1CCN(C(C)=O)[C@@H]1COC (atropisomer, axis not shown) [Compound 924]
0.1 to 1 µM	< 0.1 µM	0.1 to 1 µM	0.1 to 1 µM	< 0.1 µM	0.1 to 1 µM			CCN(c1nc(OC[C@@]23CCCN2C[C@H](F)C3)nc2c(F)c(-c3ccc(F)c4sc(N)c(C#N)c34)c(C(F)(F)F)cc12)[C@H]1CCN(C(=O)c2cocn2)[C@@H]1C (atropisomer, axis not shown) [Compound 900]
0.1 to 1 µM	< 0.1 µM	0.1 to 1 µM	0.1 to 1 µM	< 0.1 µM	0.1 to 1 µM			CCN(c1nc(OC[C@@]23CCCN2C[C@H](F)C3)nc2c(F)c(-c3ccc(F)c4sc(N)c(C#N)c34)c(C(F)(F)F)cc12)[C@@H]1CCN(C(=O)[C@@H]2CCO2)[C@@H]1C (atropisomer, axis not shown) [Compound 931]
